The text below walks through data of paper PMC5309242, “Substrate-Dependence of Competitive Nucleotide Pyrophosphatase/Phosphodiesterase1 (NPP1) Inhibitors” (Frontiers in Pharmacology, 2017).

The target of data set [1] is T1, human NPP1 (Homo sapiens, UniProt P22413).
T1 construct: Human recombinant soluble NPP1 (Val191—Leu591) expressed in murine myeloma NS0 cells; His-tag (N); purchased R&D Systems GmbH (Wiesbaden, Germany); host or cells: murine myeloma NS0 cells
T1 sequence (P22413 191-591): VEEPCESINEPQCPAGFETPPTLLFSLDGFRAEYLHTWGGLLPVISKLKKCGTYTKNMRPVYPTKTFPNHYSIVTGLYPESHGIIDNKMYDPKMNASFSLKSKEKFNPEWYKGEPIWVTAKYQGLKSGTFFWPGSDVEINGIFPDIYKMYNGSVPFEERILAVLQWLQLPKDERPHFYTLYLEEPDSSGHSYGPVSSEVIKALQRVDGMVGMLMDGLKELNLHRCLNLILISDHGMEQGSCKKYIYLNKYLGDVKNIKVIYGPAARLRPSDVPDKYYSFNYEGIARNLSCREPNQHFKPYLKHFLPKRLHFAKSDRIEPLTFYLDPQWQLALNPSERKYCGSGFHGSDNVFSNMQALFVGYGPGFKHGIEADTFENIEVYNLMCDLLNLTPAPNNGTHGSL
Kind of data set: NPP1 inhibition vs. natural substrate ATP (CE, AMP quantified by UV at 260 nm). In kind it is biochemical.

The target of data set [2] is T1, human NPP1. The data set is described as follows: Inhibition constants and mechanism of inhibition (Hanes-Woolf plots) compared across all investigated substrates. The format is biochemical. Conditions: for Inhibition type: Hanes-Woolf plots, same type vs. all three substrates (ATP, p-Nph-5′-TMP, p-Nph-5′-AMP).
Data set [3] has as its target T1, human NPP1. Kind of data set: NPP1 inhibition vs. artificial substrate p-Nph-5′-TMP (p-nitrophenolate at 400 nm). In kind it is biochemical.
Data set [4] has as its target T1, human NPP1. The data set is described as follows: NPP1 inhibition vs. new artificial substrate p-Nph-5′-AMP (p-nitrophenolate at 400 nm). The format is biochemical.
In data set [5] the target is T1, human NPP1. Details: method as in Lee and Müller, 2014. Conditions: ref Lee and Müller, 2014; cited from earlier work.
Data set [6] has as its target T1, human NPP1. The data set is described as follows: Enzyme kinetic parameters of NPP1 substrates. Conditions: for kcat: substrate of human NPP1, pH 9.0, 37°C. In kind it is biochemical. Here is the method:
(§1) Enzyme kinetic parameters were measured for p-Nph-5′-TMP and p-Nph-5′-AMP, both being artificial substrates of human NPP1. Solutions with different concentrations of both substrates (ranging from 1.0 to 500 μM) were prepared in 10 mM CHES buffer (in mM: 1 MgCl2, 2 CaCl2, 10 CHES, pH 9.0) and added in a final volume of 100 μl to 96-well-plates. The enzyme reactions were initiated by the addition of 20 ng of human NPP1 (for p-Nph-5′-TMP), or 75 ng of human NPP1 (for p-Nph-5′-AMP). The mixture was incubated at 37°C for 15 min (p-Nph-5′-TMP), or 30 min (for p-Nph-5′-AMP), respectively, and subsequently terminated by the addition of 20 μl of 1.0 N aqueous NaOH solution. The amounts of p-nitrophenolate liberated were measured at 400 nm. Each analysis was repeated twice in three separate experiments.

In another data set the target is NPP1. Conditions: cited from earlier work; for Ki: vs. ATP as a substrate, ref Iqbal et al., 2008.
For data set [7], the target named is T1, human NPP1. Set-up: method as in Namasivayam et al., 2017. Conditions: substrate of NPP1; ref Namasivayam et al., 2017; cited from earlier work.
The target of data set [8] is T1, human NPP1. Conditions: read-out: Ki, ATP; substrate ATP; mean ± SEM; ref Lee et al., 2015; cited from earlier work.
Data set [9] has as its target T1, human NPP1. Details: method as in Chang et al., 2014. Conditions: more potent vs. p-Nph-5′-TMP than vs. ATP; ref Chang et al., 2014; cited from earlier work.
Substrate in data set [10]: Cc1cn([C@H]2C[C@H](O)[C@@H](COP(=O)(O)Oc3ccc([N+](=O)[O-])cc3)O2)c(=O)[nH]c1=O
Kind of data set: Enzyme kinetic parameters of NPP1 substrates. In kind it is biochemical. The conditions noted are these: other: substrate of human NPP1, pH 9.0, 37°C. As to the method: as §1

Substrate in data set [11]: Nc1ncnc2c1ncn2[C@@H]1O[C@H](COP(=O)(O)Oc2ccc([N+](=O)[O-])cc2)[C@@H](O)[C@H]1O
The data set is described as follows: Enzyme kinetic parameters of NPP1 substrates. The format is biochemical. Conditions: other: substrate of human NPP1, pH 9.0, 37°C. As to the method: as §1

Setting [12] is: substrate p-Nph-5′-TMP, mean ± SD of three independent experiments, read-out: Ki ± SD, p-Nph-5′-TMP.
Setting [13] is: substrate p-Nph-5′-AMP, mean ± SD of three independent experiments, read-out: Ki ± SD, p-Nph-5′-AMP.

Read-outs that look alike come from different tables or passages of the source. Marks after values point to notes of the source that are not given here. Where only a bound is given, the exact number is not on record here.

The Ki is a measure of affinity in units of concentration, obtained from inhibition or displacement. Usually kcat stands for the number of substrate molecules converted per active site and unit of time at saturation. The term IC50 denotes the midpoint of a concentration-inhibition curve. One may read the Km as the concentration of substrate that gives half-maximal velocity. What is called kcat/Km is the turnover number divided by the Michaelis constant.

As for `Nc1ncnc2c1ncn2[C@@H](C=O)O[C@@H](C=O)COP(=O)(O)OP(=O)(O)OP(=O)(O)O` [dialATP, adenosine 5′-triphosphate-2′,3′-dialdehyde], the “αKi ± SD, ATP” value at human NPP1 [1] (αKi-value (un-competitive inhibitor), substrate ATP, mean ± SD of three independent experiments) was 6.82 ± 1.01^b μM. Moreover, at human NPP1 [2], the Ki is roughly 5 µM and the Inhibition type entry is “Un-competitive”. Further, the “αKi ± SD, p-Nph-5′-TMP” value at human NPP1 [3] (αKi-value (un-competitive inhibitor), substrate p-Nph-5′-TMP, mean ± SD of three independent experiments) is reported as 4.09 ± 0.41^b μM. On human NPP1 [4] (αKi-value (un-competitive inhibitor), substrate p-Nph-5′-AMP, mean ± SD of three independent experiments), the “αKi ± SD, p-Nph-5′-AMP” value was 5.08 ± 0.33^b μM. For the same molecule, the “manner of NPP1 inhibition” value on human NPP1 [5] is reported as “uncompetitive”.
With `Cc1cn([C@H]2C[C@H](O)[C@@H](COP(=O)(O)Oc3ccc([N+](=O)[O-])cc3)O2)c(=O)[nH]c1=O` [p-Nph-5′-TMP, p-Nitrophenyl 5′-thymidine monophosphate], the “kcat-value fold higher than that for p-Nph-5′-AMP” value on human NPP1 [6] (compared to p-Nph-5′-AMP) is roughly 10 fold. Moreover, on human NPP1 [6], the turnover number (kcat) was 22.3 s⁻¹.
Consider `Cc1ccc(C(=O)Nc2ccc(S(=O)(=O)O)c3cc(S(=O)(=O)O)cc(S(=O)(=O)O)c23)cc1NC(=O)c1cccc(NC(=O)Nc2cccc(C(=O)Nc3cc(C(=O)Nc4ccc(S(=O)(=O)O)c5cc(S(=O)(=O)O)cc(S(=O)(=O)O)c45)ccc3C)c2)c1` [suramin], for which the Ki on NPP1 was 0.26 µM.
For `Nc1c(S(=O)(=O)O)cc(Nc2ccc(Nc3nc(Cl)nc(Nc4cccc(S(=O)(=O)O)c4)n3)c(S(=O)(=O)O)c2)c2c1C(=O)c1ccccc1C2=O` [reactive blue 2], the Ki at human NPP1 [1] is 0.141 ± 0.031 µM; at human NPP1 [3], 0.198 ± 0.034 µM; at human NPP1 [4] it was 0.176 ± 0.025 µM; at NPP1, 0.52 µM. Further, on human NPP1 [2], the Inhibition type entry was “Non-competitive”.
For `Nc1ncnc2c1ncn2[C@@H]1O[C@H](COP(=O)(O)OP(=O)(O)OP(=O)(O)O)[C@@H](O)[C@H]1O` [ATP, adenosine 5′-triphosphate], the kcat at human NPP1 [7] is 5.51 s⁻¹.
As to `Nc1ncnc2c1ncn2[C@@H]1O[C@H](COP(=O)(O)CP(=O)(O)OP(=O)(O)O)[C@@H](O)[C@H]1O` [α,β-metATP, adenosine 5′-(α,β-methylene)triphosphate], the Inhibition type result at human NPP1 [2] was “Competitive”.
In the case of `CSc1nc(N)c2ncn([C@@H]3O[C@H](COP(=O)(O)OP(=O)(O)OP(=O)(O)O)[C@@H](O)[C@H]3O)c2n1` [2-MeSATP, 2-methylthio-adenosine 5′-triphosphate], the Ki at human NPP1 [1] was 25.3 ± 5.9 µM; at human NPP1 [3] (setting [12]), 4.47 ± 0.66 µM; at human NPP1 [4] (setting [13]) it was 39.9 ± 6.9 µM. The Inhibition type result at human NPP1 [2] was “Competitive”.
`Nc1ncnc2c1ncn2[C@@H]1O[C@H](COP(=O)(O)Oc2ccc([N+](=O)[O-])cc2)[C@@H](O)[C@H]1O` [p-Nph-5′-AMP, p-nitrophenyl 5′-adenosine monophosphate]: at human NPP1 [6] (compared to natural substrate ATP), the “Km-value fold higher than that for ATP” value is greater than 20 fold. Besides, the kcat on human NPP1 [6] amounted to 2.51 s⁻¹.
For `CSc1nc(N)c2ncn([C@@H]3O[C@H](COP(=O)(O)OP(=O)(O)O)[C@@H](O)[C@H]3O)c2n1` [2-MeSADP, 2-methylthio-adenosine 5′-diphosphate], the Ki is 32.8 ± 7 µM on human NPP1 [1], 2.18 ± 0.29 µM on human NPP1 [3] (setting [12]) and 35.4 ± 6.4 µM at human NPP1 [4] (setting [13]). Further, at human NPP1 [2], the Inhibition type entry is “Competitive”.
On to [TiW11CoO40]^8−, for which, at human NPP1 [2], the Inhibition type result was “Non-competitive”. Moreover, the Ki at human NPP1 [3] (setting [12]) is 0.00199 ± 0.00033 µM; on human NPP1 [4] (setting [13]), 0.00174 ± 0.00099 µM; on human NPP1 [8], 0.00146 ± 1e-05 µM.
For the molecule `COc1ccc(NC(=O)CSc2nc3c(N)ncnc3[nH]2)cc1OC` [PZB08513136A, 2-(6-Amino-9H-purin-8-ylthio)-N-(3,4-dimethoxyphenyl)acetamide], on human NPP1 [9], the “fold difference in potency, p-Nph-5′-TMP vs. ATP as substrate” value is “more than 100 fold”. The Inhibition type entry at human NPP1 [2] is “Competitive”. The Ki at human NPP1 [4] (setting [13]) stood at 14.9 ± 0.8 µM.
In the case of `COc1cc2ncnc(N3CCC(CCNS(N)(=O)=O)CC3)c2cc1OC` [SAR 03004, N-[2-[1-(6,7-Dimethoxyquinazolin-4-yl)piperidin-4-yl]ethyl]sulfuric diamide], the Inhibition type result at human NPP1 [2] is “Competitive”. For the same molecule, in the data set on NPP1 (ATP as a substrate, ref Patel et al., 2009), the IC50 was […].
As for `Nc1ncnc2c1ncn2[C@@H](C=O)O[C@@H](C=O)COP(=O)(O)OP(=O)(O)O` [dialADP, Adenosine 5′-diphosphate-2′,3′-dialdehyde], the Ki at human NPP1 [1] is 5.62 ± 1.23 µM; at human NPP1 [2] it was roughly 5 µM; on human NPP1 [3] (setting [12]) it was 5.03 ± 0.15 µM; at human NPP1 [4] (setting [13]), 5.09 ± 1.72 µM. Moreover, the Inhibition type result on human NPP1 [2] is listed as “Non-competitive”. Further, on human NPP1 [5], the “manner of NPP1 inhibition” value is “non-competitive”.
On to `Nc1ncnc2c1ncn2[C@@H]1O[C@H](COP(=O)(O)CP(=O)(O)O)[C@@H](O)[C@H]1O` [α,β-metADP, adenosine 5′-(α,β-methylene)diphosphate], for which the values for the Ki on human NPP1 [1], at human NPP1 [3] and at human NPP1 [4] were 16.5 ± 3.1 µM, 1.28 ± 0.16 µM and 25.8 ± 4.1 µM, respectively. Moreover, the Inhibition type result at human NPP1 [2] was “Competitive”.

B1: human NPP1 (Homo sapiens) (protein)
chain: T1 sequence (P22413 191-591)
notes: Human recombinant soluble NPP1 (Val191—Leu591) expressed in murine myeloma NS0 cells; His-tag (N); purchased R&D Systems GmbH (Wiesbaden, Germany); host or cells: murine myeloma NS0 cells
As to B1, the Km in [10] is 222 µM. For the same molecule, in data set [11], the Km is 188 µM, the kcat is 2.51 s⁻¹ and the kcat/Km came to 13400 M⁻¹ s⁻¹.
